According to patent US11787799B2 (priority 2015, dated 2023):

What was measured:
[1] = system: Poliovirus 1; test: microbe, parasite or virus in culture; format: cell-based; details: read-out: EC50 PV1
[2] = system: Enterovirus D68/US/KY/14-18953; test: Antiviral assay, Enterovirus D68 strain US/KY/14-18953 in RD cells; format: cell-based
[3] = system: Enterovirus 71; test: microbe, parasite or virus in culture; format: cell-based; details: read-out: EC50 EV71
[4] = system: RD cells
[5] = system: LLC cells
[6] = system: Echovirus 9; test: microbe, parasite or virus in culture; format: cell-based; details: read-out: EC50 ECHO09
[7] = system: Coxsackievirus B1; test: microbe, parasite or virus in culture; format: cell-based; details: read-out: EC50 CVB1
[8] = system: Coxsackievirus B3-H3; test: microbe, parasite or virus in culture; format: cell-based; details: read-out: EC50 CVB3-H3
[9] = system: Coxsackievirus B4; test: microbe, parasite or virus in culture; format: cell-based; details: read-out: EC50 CVB4
[10] = system: Coxsackievirus A9; test: microbe, parasite or virus in culture; format: cell-based; details: read-out: EC50 COX A9
[11] = system: Enterovirus D68/Fermon; test: Antiviral assay, Enterovirus D68 strain Fermon in RD cells; format: cell-based
[12] = system: HeLa-RW cells
[13] = system: Enterovirus D68/US/Mo/14-18949; test: Antiviral assay, Enterovirus D68 strain US/Mo/14-18949 in RD cells; format: cell-based
[14] = system: Coxsackievirus B2; test: microbe, parasite or virus in culture; format: cell-based; details: read-out: EC50 CVB2
[15] = system: Coxsackievirus B5; test: microbe, parasite or virus in culture; format: cell-based; details: read-out: EC50 CVB5
[16] = system: Poliovirus 3; test: microbe, parasite or virus in culture; format: cell-based; details: read-out: EC50 PV3
[17] = system: Echovirus 11; test: microbe, parasite or virus in culture; format: cell-based; details: read-out: EC50 ECHO11
[18] = system: Echovirus 6; test: microbe, parasite or virus in culture; format: cell-based; details: read-out: EC50 ECHO06
[19] = system: Echovirus 7; test: microbe, parasite or virus in culture; format: cell-based; details: read-out: EC50 ECHO07

| SMILES | EC50 [1] [nM] | EC50 [2] [nM] | EC50 [3] [nM] | CC50 [4] [nM] | CC50 [5] [nM] | EC50 [6] [nM] | EC50 [7] [nM] | EC50 [8] [nM] | EC50 [9] [nM] | EC50 [10] [nM] | EC50 [11] [nM] | CC50 [12] [nM] | EC50 [13] [nM] | EC50 [14] [nM] | EC50 [15] [nM] | EC50 [16] [nM] | EC50 [17] [nM] | EC50 [18] [nM] | EC50 [19] [nM] |
| --- | --- | --- | --- | --- | --- | --- | --- | --- | --- | --- | --- | --- | --- | --- | --- | --- | --- | --- | --- |
| CC(C)n1ncc2c(C(=O)Nc3cc(S(N)(=O)=O)ccc3F)cc(-c3cccs3)nc21 [JX-068] | 6250 | 110 ± 10 | 500 | 25000 | 25000 | 200 | 600 | 600 | 500 | 600 | 50 | 18000 | 50 ± 10 | 500 | 500 | 6250 |  |  |  |
| CC(C)n1ncc2c(C(=O)Nc3ncccn3)cc(-c3ccsc3)nc21 [JX-058] | > 10000 |  | 1200 |  | 50000 | 600 | 1200 | 1200 | 1200 |  |  | 40000 |  | 1200 | 1200 | > 10000 | 1300 |  |  |
| CC(C)n1ncc2c(C(=O)Nc3ccccc3F)cc(-c3ccncc3)nc21 [JX-003] | > 25000 |  | > 10000 |  | 45000 |  |  | 5100 ± 100 |  | 7000 ± 800 |  | 37500 |  |  |  | > 25000 | 5300 | 9200 ± 3200 |  |
| CC(C)n1ncc2c(C(=O)Nc3ccccn3)cc(-c3ccsc3)nc21 [JX-057] | > 10000 |  | 800 |  | 25000 | 400 | 1200 | 1200 | 1200 |  |  | 18000 |  | 1200 | 1200 | > 10000 | 1200 |  |  |
| CC(C)n1ncc2c(C(=O)Nc3ccncn3)cc(-c3ccsc3)nc21 [JX-059] | > 10000 | 870 ± 310 | 800 | 75000 | > 200000 | 400 | 1200 | 1200 | 1200 |  | 690 ± 90 | > 200000 | 570 ± 220 | 1200 | 1200 | > 10000 | 1200 |  |  |
| CC(C)n1ncc2c(C(=O)Nc3ccccc3F)cc(-c3cncs3)nc21 [JX-010] | > 25000 |  | 3700 ± 200 |  | 100000 |  |  | 3300 ± 1400 |  | 3100 |  | > 200000 |  |  |  | > 25000 | 3200 | 4200 ± 300 |  |
| CC(C)n1ncc2c(C(=O)Nc3ccc(F)c(F)c3)cc(-c3cccs3)nc21 [JX-015] | > 25000 |  |  |  | > 200000 | 600 | 2300 | 1300 ± 100 | 3100 | 1200 |  | > 200000 |  |  | 2300 | > 25000 |  | 1300 ± 100 |  |
| CC(C)n1ncc2c(C(=O)Nc3ccc(S(C)(=O)=O)cc3)cc(-c3cccs3)nc21 [JX-047] | > 10000 | 300 | 500 ± 100 | 75000 | 50000 |  | 600 | 600 | 600 | 500 | 300 | 200000 | 160 ± 40 | 600 | 600 | > 10000 |  | 300 | 800 |
| CC(C)n1ncc2c(C(=O)Nc3c(F)cccc3F)cc(-c3cccs3)nc21 [JX-009] | > 25000 |  | 3400 ± 700 |  | > 200000 |  |  | 3200 ± 500 |  | 4000 |  | > 200000 |  |  |  | > 25000 | 2800 | 4900 ± 300 |  |
| CC(C)n1ncc2c(C(=O)Nc3ccccc3F)cc(-c3cccnc3)nc21 [JX-005] | > 25000 |  | > 10000 |  | 50000 |  |  | 7000 ± 2400 |  | 7800 ± 2600 |  | 37500 |  |  |  | > 25000 | 4500 | 9000 |  |
| CC(C)n1ncc2c(C(=O)Nc3cccc(F)c3)cc(-c3cccs3)nc21 [JX-021] | > 25000 |  | 2400 ± 800 |  | > 200000 | 1200 | 2600 ± 500 | 1300 ± 200 | 2600 ± 500 | 1600 |  | > 200000 |  | 2600 ± 500 | 2300 | > 25000 |  | 1500 ± 500 | 2900 |
| CC(C)n1ncc2c(C(=O)Nc3ccccn3)cc(-c3ccccc3)nc21 [JX-070] | > 10000 | 700 | 700 | 12500 | 12500 |  | 1200 | 1600 |  |  | 350 | 18800 |  | 1600 |  | > 10000 |  |  | 2300 |
| CC(C)n1ncc2c(C(=O)Nc3ccccc3F)cc(-c3ccccn3)nc21 [JX-004] | > 25000 |  | > 10000 |  | 100000 |  |  | 6900 ± 700 |  | 6100 ± 2200 |  | > 200000 |  |  |  | > 25000 | 3800 | 7800 ± 1800 |  |
| CC(C)n1ncc2c(C(=O)Nc3ccccc3F)cc(-c3ccccc3)nc21 [JX-002] | > 25000 |  | 5700 ± 1500 |  | > 200000 |  |  | 4500 ± 1500 |  | 5000 |  | 37500 |  |  |  | > 25000 | 2900 | 4400 ± 600 |  |
| CC(C)n1ncc2c(C(=O)Nc3cncnc3)cc(-c3cccs3)nc21 [JX-066] | > 10000 | 150 | 400 | 25000 | 20000 | 200 | 500 | 700 ± 200 | 500 | 400 | 60 ± 20 | 18000 | 50 ± 10 | 500 | 500 | > 10000 |  |  |  |
| CC(C)n1ncc2c(C(=O)Nc3cccc(C(N)=O)c3)cc(-c3cccs3)nc21 [JX-064] | 6250 | 170 | 500 | 25000 | 20000 | 200 | 600 | 700 ± 100 | 600 | 600 |  | 18000 | 50 | 600 | 600 | 6250 |  |  |  |
